Results taken from US10899910B2, “Quaternary cationic polymers” (ECOLAB USA, INC., priority 2016, dated 2021).

Legend:
[1] = Surface tension measurement (Tracker tensiometer); type: physicochemical; details: room temperature
Procedure: Surface tension measurements were conducted on a Tracker tensiometer (Teclis Instruments) at room temperature. Various concentrations of surfactant solutions were prepared and measurements were conducted.
The surface tension as a function of concentration of the cationic surfactant samples were measured and are listed in Table 2, where NT means not tested.

[2] = test system: collection of aerobic bacteria from 30 water samples in cooling towers across North America; test: Biofilm reduction (biofilm inhibition test, stain absorbance at 590 nm); type: cell-based; details: for (Comp. - Single Quat 2)*100 / Single Quat 2: biofilm reduction relative to Single Quat 2
Procedure: Biofilm reduction experiments were conducted to test the efficacy of multi-quaternary cationic polymers compared to single quaternary compounds. Two different compositions were prepared containing single quaternary compounds: a composition (Single Quat 1) comprising about 50% by weight bisoctyl dimethyl ammonium chloride (CAS #5538-94-3) and about 5-10% by weight glycerin; and a composition (Single Quat 2) comprising about 50% by weight didecyl-dimethyl ammonium chloride (CAS #7173-51-5) and about 10-30% by weight ethanol. The test bacteria comprised a collection of aerobic bacteria from 30 water samples in cooling towers across North America. Different concentrations of cationic polymer salts and single quaternary compounds were tested ranging from about 0.8 ppm to about 1000 ppm. Using the biofilm inhibition test protocols, the absorbed stains were extracted and absorbance was measured at 590 nm. The biofilm reduction was calculated by comparing the absorbance of treated vs untreated controls, then averaged over six replicates.

[3] = Corrosion bubble cell test (Linear Polarization Resistance); details: 2 ppm with 1% 2ME synergist, 80° C.
Procedure: (§1) Cationic polymer salts were evaluated for corrosion performance as compared to a C12-C18 alkyl dimethyl benzyl ammonium chloride via a bubble test procedure. The bubble test simulates low flow areas where little or no mixing of water and oil occurs. The test was conducted using brine (80% of the brine being 3% sodium chloride brine and 20% of the brine being a hydrocarbon containing 75% LVT-200 kerosene oil and 25% xylene). The brine was placed into kettles and purged with carbon dioxide. The brine was continually purged with carbon dioxide to saturate the brine prior to starting the test. After the test began, the test cell was blanketed with carbon dioxide one hour prior to electrode insertion and through the duration of the test to maintain saturation. The kettles were stirred at 150 revolutions per minute (rpm) for the duration of the test to maintain thermal equilibrium at 80° C. The corrosion rate was measured by Linear Polarization Resistance (LPR) techniques. The working electrode used was carbon steel. The counter and reference electrodes were both 1018 carbon steel. The electrodes were all cleaned and polished prior to testing. Data were collected for three hours before 20 ppm of each of the compositions (containing 2 ppm of each of various pentaquaternary cationic polymer salts or the comparative C12-C18 alkyl dimethyl benzyl ammonium chloride and 1% 2-mercaptoethanol (2ME) as synergist in an organic solvent) was dosed into its respective cell. Data were collected overnight. A low concentration of the compositions was used to differentiate between the compositions.
Corrosion bubble cell tests were performed according to the method of Example A1 to evaluate a hexaquaternary cationic polymer salt for corrosion performance as compared to a C12-C18 alkyl dimethyl benzyl ammonium chloride. Data were collected for three hours before 20 ppm of each of the compositions (containing 2 ppm of a hexaquaternary cationic polymer salt or the comparative C12-C18 alkyl dimethyl benzyl ammonium chloride and 1% 2ME as synergist in an organic solvent) was dosed into its respective cell. Data were collected overnight. A low concentration of the compositions was used to differentiate between the compositions.
as §1, with “six” for “three”, “polyethyleneimine-based” for “pentaquaternary”, “cell. However, for the comparative composition, data was only collected three hours before addition of the compositions.” for “cell.”

[4] = CO2-saturated brine/hydrocarbon, three hours baseline (Tables 8, 9)

Work on CCCCCCCCCCCCCCCCCC[N+](C)(C)CC(O)CN(CCN(CCN(CC(O)C[N+](C)(C)C)CC(O)C[N+](C)(C)C)CC(O)C[N+](C)(C)C)CC(O)C[N+](C)(C)C.[Cl-].[Cl-].[Cl-].[Cl-].[Cl-] (stereo not drawn) [Compound 7] yielded a Surface tension ([1]; concentration 0.010 %) of 73.70 mN/m, a Surface tension ([1]; concentration 0.025 %) of 72.05 mN/m and a Surface tension ([1]; concentration 0.050 %) of 64.84 mN/m. For the same molecule, the Surface tension ([1]; concentration 0.100 %) was 60.93 mN/m, the Surface tension ([1]; concentration 0.200 %) was 57.12 mN/m and the Surface tension ([1]; concentration 0.500 %) was 55.13 mN/m. For the same molecule, the Biofilm reduction ([2]; active conc. 0.8 ppm) was 22.9%, the “(Comp. - Single Quat 2)*100 / Single Quat 2” value ([2]; active conc. 0.8 ppm) was 106.8% and the Biofilm reduction ([2]; active conc. 1.6 ppm) was 12.7%. For the same molecule, the “(Comp. - Single Quat 2)*100 / Single Quat 2” value ([2]; active conc. 1.6 ppm) was 321.3%, the Biofilm reduction ([2]; active conc. 3.0 ppm) was 46.7% and the “(Comp. - Single Quat 2)*100 / Single Quat 2” value ([2]; active conc. 3.0 ppm) was 35.5%. The Biofilm reduction ([2]; active conc. 6.0 ppm) was 23.5%, the “(Comp. - Single Quat 2)*100 / Single Quat 2” value ([2]; active conc. 6.0 ppm) was 195.0% and the Biofilm reduction ([2]; active conc. 8.0 ppm) was 54.9%. The “(Comp. - Single Quat 2)*100 / Single Quat 2” value ([2]; active conc. 8.0 ppm) was −20.8%, the Biofilm reduction ([2]; active conc. 12.0 ppm) was 65.1% and the “(Comp. - Single Quat 2)*100 / Single Quat 2” value ([2]; active conc. 12.0 ppm) was 24.2%. The Biofilm reduction ([2]; active conc. 16.0 ppm) was 90.6%, the “(Comp. - Single Quat 2)*100 / Single Quat 2” value ([2]; active conc. 16.0 ppm) was 10.9% and the Biofilm reduction ([2]; active conc. 25.0 ppm) was 90.6%. For the same molecule, the “(Comp. - Single Quat 2)*100 / Single Quat 2” value ([2]; active conc. 25.0 ppm) was 12.9%, the Biofilm reduction ([2]; active conc. 31.0 ppm) was 94.7% and the “(Comp. - Single Quat 2)*100 / Single Quat 2” value ([2]; active conc. 31.0 ppm) was 16.0%. For the same molecule, the Biofilm reduction ([2]; active conc. 50.0 ppm) was 93.0%, the “(Comp. - Single Quat 2)*100 / Single Quat 2” value ([2]; active conc. 50.0 ppm) was 15.7% and the Biofilm reduction ([2]; active conc. 62.0 ppm) was 96.6%. The “(Comp. - Single Quat 2)*100 / Single Quat 2” value ([2]; active conc. 62.0 ppm) was 47.6%, the Biofilm reduction ([2]; active conc. 100.0 ppm) was 79.3% and the “(Comp. - Single Quat 2)*100 / Single Quat 2” value ([2]; active conc. 100.0 ppm) was 608.5%. The Biofilm reduction ([2]; active conc. 125.0 ppm) was 96.6%, the “(Comp. - Single Quat 2)*100 / Single Quat 2” value ([2]; active conc. 125.0 ppm) was 1517.3% and the Biofilm reduction ([2]; active conc. 250.0 ppm) was 97.1%. For the same molecule, the “(Comp. - Single Quat 2)*100 / Single Quat 2” value ([2]; active conc. 250.0 ppm) was 15.3%, the Biofilm reduction ([2]; active conc. 500.0 ppm) was 97.8% and the “(Comp. - Single Quat 2)*100 / Single Quat 2” value ([2]; active conc. 500.0 ppm) was 6.3%. The Biofilm reduction ([2]; active conc. 1000.0 ppm) was 98.4%, the “(Comp. - Single Quat 2)*100 / Single Quat 2” value ([2]; active conc. 1000.0 ppm) was 63.7% and the “biofilm reduction compared with the Single Quat 2 composition” value ([2]; at concentrations as low as about 12 ppm) was “reduced biofilms to a greater extent than the Single Quat 2 composition”. The “% Protection” value [3, 4] was 64%.

Molecule CCCCCCCCCCCCCCCCCC[N+](C)(C)CC(O)CN(CCN(CCN(CC(O)C[N+](C)(C)CCCCCCCCCCCCCCCCCC)CC(O)C[N+](C)(C)CCCCCCCCCCCCCCCCCC)CC(O)C[N+](C)(C)C)CC(O)C[N+](C)(C)C.[Cl-].[Cl-].[Cl-].[Cl-].[Cl-] (stereo not drawn) [Compound 10] has a Surface tension ([1]; concentration 0.010 %) of 70.99 mN/m, a Surface tension ([1]; concentration 0.025 %) of 61.99 mN/m and a Surface tension ([1]; concentration 0.050 %) of 57.33 mN/m. For the same molecule, the Surface tension ([1]; concentration 0.100 %) was 52.64 mN/m, the Surface tension ([1]; concentration 0.200 %) was 50.58 mN/m and the Surface tension ([1]; concentration 0.500 %) was 47.92 mN/m. The Surface tension ([1]; concentration 1.000 %) was 47.48 mN/m.

Molecule CCCCCCCCCCCCCCCCCC[N+](C)(C)CC(O)CN(CCN(CCN(CC(O)C[N+](C)(C)CCCCCCCCCCCCCCCCCC)CC(O)C[N+](C)(C)CCCCCCCCCCCCCCCCCC)CC(O)C[N+](C)(C)C)CC(O)C[N+](C)(C)CCCCCCCCCCCCCCCCCC.[Cl-].[Cl-].[Cl-].[Cl-].[Cl-] (stereo not drawn) [Compound 11] has a Surface tension ([1]; concentration 0.010 %) of 63.52 mN/m, a Surface tension ([1]; concentration 0.025 %) of 60.01 mN/m and a Surface tension ([1]; concentration 0.050 %) of 56.35 mN/m. The Surface tension ([1]; concentration 0.100 %) was 53.23 mN/m, the Surface tension ([1]; concentration 0.200 %) was 50.16 mN/m and the Surface tension ([1]; concentration 0.500 %) was 47.38 mN/m. The Surface tension ([1]; concentration 1.000 %) was 46.58 mN/m and the “% Protection” value [3, 4] was 76%.

Work on CCCCCCCCCCCCCCCCCC[N+](C)(C)CC(O)CN(CCN(CC(O)C[N+](C)(C)CCCCCCCCCCCCCCCCCC)CC(O)C[N+](C)(C)CCCCCCCCCCCCCCCCCC)CCN(CC(O)C[N+](C)(C)CCCCCCCCCCCCCCCCCC)CC(O)C[N+](C)(C)CCCCCCCCCCCCCCCCCC.[Cl-].[Cl-].[Cl-].[Cl-].[Cl-] (stereo not drawn) [Compound 12] yielded a Surface tension ([1]; concentration 0.010 %) of 63.16 mN/m, a Surface tension ([1]; concentration 0.025 %) of 55.77 mN/m and a Surface tension ([1]; concentration 0.050 %) of 51.89 mN/m. It also gave a Surface tension ([1]; concentration 0.100 %) of 49.42 mN/m, a Surface tension ([1]; concentration 0.200 %) of 47.02 mN/m and a Surface tension ([1]; concentration 0.500 %) of 45.02 mN/m. For the same molecule, the Surface tension ([1]; concentration 1.000 %) was 44.22 mN/m, the Surface tension ([1]; concentration 1.500 %) was 43.46 mN/m and the Surface tension ([1]; concentration 2.000 %) was 42.97 mN/m. The “% Protection” value [3, 4] was 55%.

CCCCCCCCCCCCCCCCCC[N+](C)(C)CC(O)CN(CCN(CCN(CC(O)C[N+](C)(C)CCCCCCCCCCCCCCCCCC)CC(O)C[N+](C)(C)CCCCCCCCCCCCCCCCCC)CC(O)C[N+](C)(C)CCCCCCCCCCCCCCCCCC)CCN(CC(O)C[N+](C)(C)CCCCCCCCCCCCCCCCCC)CC(O)C[N+](C)(C)CCCCCCCCCCCCCCCCCC.[Cl-].[Cl-].[Cl-].[Cl-].[Cl-].[Cl-] (stereo not drawn) [Compound 13] showed a Surface tension ([1]; concentration 0.010 %) of 63.28 mN/m, a Surface tension ([1]; concentration 0.025 %) of 59.04 mN/m and a Surface tension ([1]; concentration 0.050 %) of 55.36 mN/m. It also gave a Surface tension ([1]; concentration 0.100 %) of 52.65 mN/m, a Surface tension ([1]; concentration 0.200 %) of 50.31 mN/m and a Surface tension ([1]; concentration 0.500 %) of 48.02 mN/m. For the same molecule, the Surface tension ([1]; concentration 1.000 %) was 47.78 mN/m and the “% Protection” value [3, 4] was 52%.

In the case of “C12-C18 alkyl dimethyl benzyl ammonium chloride [reference compound]”, the “% Protection” value ([3]; six hours baseline (comparative: three hours) (Table 10)) is reported as 38% and the “% Protection” value [3, 4] is reported as 38%.
